Literature values in patent US6955766B2, “Method for reducing harmful organisms in currents of water” (priority 1999, dated 2005).

Tested on: zebra mussels
Settings: batchwise treatment of water

**Q.** Which “concentration necessary to achieve an acceptable mortality rate of the mussels in a sufficiently short time” value does the source give for CC(=O)OO [peroxyacetic acid] here?
**A.** ≥ 10 mg/L
